Paper PMC10141604, “Small-Molecule Inhibition of Androgen Receptor Dimerization as a Strategy against Prostate Cancer” (ACS Central Science, 2023)

Legend:
PC3 = assay: MTT cell viability assay, PC3; format: cell-based; settings: 72 h
Experimental: 3-(4,5-dimethythiazol-2-yl)-2,5-diphenyl-2-H-tetrazolium bromide (MTT) colorimetric assay was employed to investigate cell viability. Cells were seeded into 96-well plates with 2-5× 10^3 cells per well (5× 10^3 cells/well for LNCaP, 22RV1, NIH-3T3, GES-1, Chang, […]
NCI-H1299, U2OS, U87) for 1 day incubation at 37 °C. Then, the cells were treated with various concentrations of compounds (22.86 nM - 50 μM) and incubated for 72 h. Then, 10 μl MTT (5 mg/ml) was added into each well and incubated for 4 h. Afterwards, 100 μl of triplex 10% SDS-0.1% HCl-phosophate-buffered saline (PBS) solutions was added into each well and incubated for overnight. The absorbance at 570 nm was measured (Eon, Bioteck, Winooski, VT). […]

MR = target: T1, MR (Homo sapiens, UniProt P08235); assay: Luciferase reporter assay for MR (HEK293T cells); format: cell-based; settings: 10 μM, 5 nM aldosterone
T1 construct: host or cells: HEK293T
T1 sequence (P08235 1-984): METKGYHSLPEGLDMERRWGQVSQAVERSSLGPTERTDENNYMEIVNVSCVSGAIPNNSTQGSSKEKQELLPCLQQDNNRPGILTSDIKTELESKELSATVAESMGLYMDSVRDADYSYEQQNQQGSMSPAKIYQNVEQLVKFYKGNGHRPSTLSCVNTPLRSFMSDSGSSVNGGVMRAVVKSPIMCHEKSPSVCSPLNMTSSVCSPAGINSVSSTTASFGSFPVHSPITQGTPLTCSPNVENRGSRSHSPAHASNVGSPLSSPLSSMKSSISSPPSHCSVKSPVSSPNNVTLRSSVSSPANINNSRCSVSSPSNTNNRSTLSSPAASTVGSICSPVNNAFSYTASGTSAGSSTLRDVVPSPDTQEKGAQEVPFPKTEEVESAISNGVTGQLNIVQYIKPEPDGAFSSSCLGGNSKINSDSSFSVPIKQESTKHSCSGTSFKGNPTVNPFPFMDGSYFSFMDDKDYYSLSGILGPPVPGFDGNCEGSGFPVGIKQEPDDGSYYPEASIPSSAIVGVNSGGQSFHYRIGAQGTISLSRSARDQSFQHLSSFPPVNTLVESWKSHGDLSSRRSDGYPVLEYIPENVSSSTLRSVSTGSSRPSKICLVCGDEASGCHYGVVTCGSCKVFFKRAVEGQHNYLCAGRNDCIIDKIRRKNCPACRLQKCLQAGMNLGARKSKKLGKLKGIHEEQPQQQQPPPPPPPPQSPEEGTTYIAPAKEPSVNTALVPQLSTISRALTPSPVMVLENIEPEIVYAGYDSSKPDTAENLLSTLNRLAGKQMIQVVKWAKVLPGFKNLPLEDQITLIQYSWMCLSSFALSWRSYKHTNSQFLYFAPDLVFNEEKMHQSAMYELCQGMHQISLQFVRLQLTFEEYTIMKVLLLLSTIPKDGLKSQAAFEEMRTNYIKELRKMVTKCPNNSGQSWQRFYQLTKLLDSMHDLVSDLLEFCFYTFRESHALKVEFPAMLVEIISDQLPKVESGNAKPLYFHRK
Experimental: Luciferase Reporter Assays for PR, GR, and MR
PC3, HeLa, and HEK293T cells were cultured using 5% CSS RPMI-1640, 5% CSS RPMI-1640 and 10% FBS DMEM media in 96-well plates for 24 h, respectively. For PR induction, PC3 (1 × 10^4 cells/well) were transfected with 50 ng pcDNA3-PRB (#89130, Addgene), 24 ng pGL4.36[luc2P MMTV Hygro] (Promega) and 5 ng Renilla using HG-TransGeneTM transfection reagent (#TG-10012, Genomeditech) for 4 h. For GR induction, Hela (1 × 10^4 cells/well) were transfected with 71 ng pCMV -GR11 (#89105, Addgene), 24 ng pGL4.36[luc2P MMTV Hygro] (Promega) and 5 ng Renilla using lip3000 transfection reagent (#L3000075, Thermofisher) for 24 h. For MR induction, HEK293T (1 × 10^4 cells/well) were transfected with 71 ng pCMV-MR gifted by Liu et al. 28, 24 ng of pGL4.36[luc2P MMTV Hygro] (Promega) and 5 ng Renilla using lip3000 transfec tion reagent for 24 h. For the antagonistic models, 10 nM /well progesterone for PC3 cells , 1 nM/well dexamethasone for HeLa, and 5 nM/well aldosterone for HEK293T cells were added to stimulate the cells. Meanwhile, each cell line was treated with a series concentration of compounds (0.4, 2, and 10 μM). For the agonistic models, the cells were directly treated with the compounds without any hormones. Endogenous hormones progesterone, dexamethasone, and aldosterone were considered as agonists for PR, GR, and MR, respectively. The luciferase activities were assessed using the Dual-Glo Luciferase system (#E1910, Promega). […]

FL-AR^F876L = FL-AR^F876L (Homo sapiens, UniProt P10275, F877L); assay: Dual-luciferase reporter assay for FL-AR F876L in PC3 cells
Sequence of FL-AR^F876L (P10275 whole entry F877L): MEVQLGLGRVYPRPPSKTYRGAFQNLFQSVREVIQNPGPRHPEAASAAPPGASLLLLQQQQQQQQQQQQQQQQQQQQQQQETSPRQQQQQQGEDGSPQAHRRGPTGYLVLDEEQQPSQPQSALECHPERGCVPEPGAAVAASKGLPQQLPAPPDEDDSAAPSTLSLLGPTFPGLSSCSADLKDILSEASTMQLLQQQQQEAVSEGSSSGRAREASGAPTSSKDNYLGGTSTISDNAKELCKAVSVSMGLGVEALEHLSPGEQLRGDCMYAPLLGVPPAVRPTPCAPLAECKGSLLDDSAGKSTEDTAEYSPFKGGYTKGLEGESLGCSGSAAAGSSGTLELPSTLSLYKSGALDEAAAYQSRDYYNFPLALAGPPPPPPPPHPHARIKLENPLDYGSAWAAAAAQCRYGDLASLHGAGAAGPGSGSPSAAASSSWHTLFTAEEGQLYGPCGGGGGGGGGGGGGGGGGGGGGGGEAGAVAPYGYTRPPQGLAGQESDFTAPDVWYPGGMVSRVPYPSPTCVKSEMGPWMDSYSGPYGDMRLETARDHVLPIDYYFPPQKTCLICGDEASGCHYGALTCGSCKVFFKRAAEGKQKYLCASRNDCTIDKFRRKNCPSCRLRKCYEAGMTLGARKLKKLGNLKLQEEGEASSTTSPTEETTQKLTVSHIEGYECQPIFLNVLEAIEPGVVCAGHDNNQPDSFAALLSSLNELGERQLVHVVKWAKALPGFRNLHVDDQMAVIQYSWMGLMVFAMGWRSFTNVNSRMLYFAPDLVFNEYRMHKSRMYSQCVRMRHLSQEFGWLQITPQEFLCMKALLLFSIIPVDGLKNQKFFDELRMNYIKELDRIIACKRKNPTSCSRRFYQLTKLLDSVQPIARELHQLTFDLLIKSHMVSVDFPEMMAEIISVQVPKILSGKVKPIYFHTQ
Experimental: Luciferase Reporter Assays for FL -ARF876L and FL-ARF876L/T877A
constructed on the basis of the human full length wild type AR plasmid pCMV -hAR
transfected with 70 ng/well of FL -AR plasmid together with 24 ng of ARR2PB -Luc, and 5 ng of Renilla. After 1 day incubation at 37 °C , the antagonistic models were employed
After another 24 h incubation, the luciferase activities were determined by the Dual -Glo Luciferase system (#E1910, Promega) according to the

Row | MR antagonistic activity (MR) | IC50 (FL-AR^F876L) | SMILES | inhibition on the cell viability of PC3 (PC3)
1 | not observed | 160 nM | CC(=O)Cc1nsc(NC(=O)c2cc(-c3cccc(C(F)(F)F)c3)oc2C)n1 [Compound M17-B15] | does not show obvious inhibition
2 | not observed | – | CNC(=O)c1ccc(N2C(=S)N(c3ccc(C#N)c(C(F)(F)F)c3)C(=O)C2(C)C)cc1F [Enz, enzalutamide, reference compound] | –
